In ChEMBL document CHEMBL3885861, “Open TG-GATES”:

Species: Rattus norvegicus
Experiment: Open TG-GATES - Regimen: Single
Assay type: toxicity, organism-based, Sprague-Dawley
Design: regimen Single, gender Male, age 6 weeks
Settings: in vivo, po, 10 mg/kg, route gavage, dose level Low; for Bas / Eos / Hb / Ht / Lym / MCH / MCHC / MCV / Mono / Neu / Plat / RBC / Ret / WBC: tissue Blood; for KIDNEY_L / KIDNEY_R / KIDNEY_TOTAL: tissue Kidney; for LIVER: tissue Liver; for A/G / ALP / ALT / AST / BUN / CRE / Ca / Cl / DBIL / GLC / IP / K / LDH / Na / PL / RALB / TBIL / TC / TG / TP / gamma-GTP: tissue Plasma

Cc1ccc2cc3c(ccc4ccccc43)c3c2c1CC3 [3-METHYLCHOLANTHRENE]
TERMINAL_BW (3 h): 210.8 g | Bas (3 h): 0% | Eos (3 h): 0.8% | Hb (3 h): 12.6 g/dL | Ht (3 h): 39.3% | Lym (3 h): 77.6% | MCH (3 h): 20.5 pg | MCHC (3 h): 32.2% | MCV (3 h): 63.7 fL | Mono (3 h): 3.4% | Neu (3 h): 17.8% | Plat (3 h): 130.6 x10_4/uL | RBC (3 h): 616.6 x10_4/ul | Ret (3 h): 9.1% | WBC (3 h): 94.8 x10_2/uL | KIDNEY_L (3 h): 0.9 g | KIDNEY_R (3 h): 0.9 g | KIDNEY_TOTAL (3 h): 1.8 g | LIVER (3 h): 9.5 g | A/G (3 h): 1 | ALP (3 h): 1720 IU/L | ALT (3 h): 46.6 IU/L | AST (3 h): 81 IU/L | BUN (3 h): 13.1 mg/dL | CRE (3 h): 0.1 mg/dL | Ca (3 h): 10.9 mg/dL | Cl (3 h): 103 meq/L | DBIL (3 h): 0.002 mg/dL | GLC (3 h): 175.4 mg/dL | IP (3 h): 8.4 mg/dL | K (3 h): 4.2 meq/L | LDH (3 h): 201.8 IU/L | Na (3 h): 139.7 meq/L | PL (3 h): 172 mg/dL | RALB (3 h): 2.9 g/dL | TBIL (3 h): 0.004 mg/dL | TC (3 h): 80 mg/dL | TG (3 h): 185.2 mg/dL | TP (3 h): 5.6 g/dL | gamma-GTP (3 h): 0.7 IU/L | TERMINAL_BW (6 h): 205.3 g | Bas (6 h): 0% | Eos (6 h): 0.4% | Hb (6 h): 12.9 g/dL | Ht (6 h): 38.8% | Lym (6 h): 73.8% | MCH (6 h): 20.7 pg | MCHC (6 h): 33.3% | MCV (6 h): 62.1 fL | Mono (6 h): 3.6% | Neu (6 h): 21.2% | Plat (6 h): 131.8 x10_4/uL | RBC (6 h): 625.8 x10_4/ul | Ret (6 h): 7.9% | WBC (6 h): 136.1 x10_2/uL | KIDNEY_L (6 h): 0.9 g | KIDNEY_R (6 h): 0.9 g | KIDNEY_TOTAL (6 h): 1.8 g | LIVER (6 h): 8.3 g | A/G (6 h): 1 | ALP (6 h): 1483.2 IU/L | ALT (6 h): 37.6 IU/L | AST (6 h): 74.6 IU/L | BUN (6 h): 8.2 mg/dL | CRE (6 h): 0.1 mg/dL | Ca (6 h): 10.6 mg/dL | Cl (6 h): 105.3 meq/L | DBIL (6 h): 0.002 mg/dL | GLC (6 h): 165.8 mg/dL | IP (6 h): 9.2 mg/dL | K (6 h): 4.2 meq/L | LDH (6 h): 162 IU/L | Na (6 h): 140.5 meq/L | PL (6 h): 160.6 mg/dL | RALB (6 h): 2.8 g/dL | TBIL (6 h): 0.004 mg/dL | TC (6 h): 87.6 mg/dL | TG (6 h): 79.2 mg/dL | TP (6 h): 5.6 g/dL | gamma-GTP (6 h): 0.7 IU/L | TERMINAL_BW (9 h): 205.9 g | Bas (9 h): 0% | Eos (9 h): 0.8% | Hb (9 h): 12.2 g/dL | Ht (9 h): 37.7% | Lym (9 h): 74.2% | MCH (9 h): 20.2 pg | MCHC (9 h): 32.5% | MCV (9 h): 62 fL | Mono (9 h): 2.8% | Neu (9 h): 21.6% | Plat (9 h): 122.2 x10_4/uL | RBC (9 h): 608.4 x10_4/ul | Ret (9 h): 8.9% | WBC (9 h): 114.6 x10_2/uL | KIDNEY_L (9 h): 0.9 g | KIDNEY_R (9 h): 0.9 g | KIDNEY_TOTAL (9 h): 1.7 g | LIVER (9 h): 8.3 g | A/G (9 h): 1 | ALP (9 h): 1540.8 IU/L | ALT (9 h): 33.6 IU/L | AST (9 h): 72 IU/L | BUN (9 h): 11.6 mg/dL | CRE (9 h): 0.1 mg/dL | Ca (9 h): 10.5 mg/dL | Cl (9 h): 104.7 meq/L | DBIL (9 h): 0 mg/dL | GLC (9 h): 174.4 mg/dL | IP (9 h): 10.2 mg/dL | K (9 h): 4.4 meq/L | LDH (9 h): 186.6 IU/L | Na (9 h): 142.1 meq/L | PL (9 h): 155.2 mg/dL | RALB (9 h): 2.8 g/dL | TBIL (9 h): 0.002 mg/dL | TC (9 h): 81.4 mg/dL | TG (9 h): 90.6 mg/dL | TP (9 h): 5.5 g/dL | gamma-GTP (9 h): 0.8 IU/L | TERMINAL_BW (24 h): 216.8 g | Bas (24 h): 0% | Eos (24 h): 0.2% | Hb (24 h): 12.7 g/dL | Ht (24 h): 38.9% | Lym (24 h): 79% | MCH (24 h): 20.2 pg | MCHC (24 h): 32.6% | MCV (24 h): 62 fL | Mono (24 h): 3.4% | Neu (24 h): 16.2% | Plat (24 h): 120.4 x10_4/uL | RBC (24 h): 627.6 x10_4/ul | Ret (24 h): 7.9% | WBC (24 h): 105.1 x10_2/uL | KIDNEY_L (24 h): 0.9 g | KIDNEY_R (24 h): 1 g | KIDNEY_TOTAL (24 h): 1.9 g | LIVER (24 h): 10.7 g | A/G (24 h): 1 | ALP (24 h): 1758 IU/L | ALT (24 h): 40.6 IU/L | AST (24 h): 73.8 IU/L | BUN (24 h): 15.7 mg/dL | CRE (24 h): 0.1 mg/dL | Ca (24 h): 10.9 mg/dL | Cl (24 h): 103.5 meq/L | DBIL (24 h): 0.002 mg/dL | GLC (24 h): 179.6 mg/dL | IP (24 h): 6.9 mg/dL | K (24 h): 4.4 meq/L | LDH (24 h): 173.4 IU/L | Na (24 h): 141.7 meq/L | PL (24 h): 165.6 mg/dL | RALB (24 h): 2.8 g/dL | TBIL (24 h): 0.002 mg/dL | TC (24 h): 81.6 mg/dL | TG (24 h): 150.3 mg/dL | TP (24 h): 5.5 g/dL | gamma-GTP (24 h): 0.8 IU/L
